Earlier results, collected in US8632986B2, “Methods and kits for detection of toxemia” (priority 2008, dated 2014).

Molecular target: albumin (Homo sapiens, UniProt P02768)
Settings: general statement

Chain of albumin (P02768 25-609, species assumed): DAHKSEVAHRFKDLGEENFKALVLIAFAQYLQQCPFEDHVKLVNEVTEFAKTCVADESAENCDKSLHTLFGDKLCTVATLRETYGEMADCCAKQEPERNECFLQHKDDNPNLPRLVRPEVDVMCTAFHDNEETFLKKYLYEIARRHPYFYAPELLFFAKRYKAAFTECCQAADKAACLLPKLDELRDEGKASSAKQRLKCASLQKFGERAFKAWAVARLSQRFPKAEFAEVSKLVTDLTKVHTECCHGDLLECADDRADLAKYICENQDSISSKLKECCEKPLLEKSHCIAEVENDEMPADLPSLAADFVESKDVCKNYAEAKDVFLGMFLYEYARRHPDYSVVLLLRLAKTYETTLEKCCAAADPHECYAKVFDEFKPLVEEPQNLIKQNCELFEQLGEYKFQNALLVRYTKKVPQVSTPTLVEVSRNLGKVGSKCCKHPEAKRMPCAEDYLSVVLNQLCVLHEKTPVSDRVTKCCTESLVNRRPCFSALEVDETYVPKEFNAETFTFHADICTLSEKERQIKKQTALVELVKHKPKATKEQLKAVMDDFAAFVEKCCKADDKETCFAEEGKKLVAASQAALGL

binding constant: about 10^9 mol^−1
SMILES: CCCCCCCCCCCCCCCCCC(=O)O [unlabeled stearic acid, stearic acid]
